Assay results reported in the NIST ThermoML archive (doi:10.1016/j.jct.2006.06.001).
± gives the expanded uncertainty stated by the source.

Columns and labels:
[1] = 81.5 kPa, Liquid
[2] = xn = mol fraction of the nth substance listed; details: 81.5 kPa, Liquid

CC(O)CO (stereo not given) [1,2-propanediol]
[1]
Details | mass density [kg/m3]
293.15 K | 1036.3 ± 0.24
303.15 K | 1028.89 ± 0.23
313.15 K | 1021.35 ± 0.22
323.15 K | 1013.68 ± 0.21
333.15 K | 1005.86 ± 0.2
343.15 K | 997.86 ± 0.19

COCCO [2-methoxyethan-1-ol]
[1]
Details | mass density [kg/m3]
293.15 K | 964.86 ± 0.23
303.15 K | 955.68 ± 0.24
313.15 K | 946.38 ± 0.25
323.15 K | 936.95 ± 0.27
333.15 K | 927.38 ± 0.28
343.15 K | 917.64 ± 0.29

COCCO [2-methoxyethan-1-ol] + CC(C)O
mass density [kg/m3], [2]
Details | 293.15 K | 303.15 K | 313.15 K | 323.15 K | 333.15 K | 343.15 K
x1 = 0.0823 | 800.06 ± 0.47 | 791.49 ± 0.48 | 782.64 ± 0.49 | 773.45 ± 0.51 | 763.86 ± 0.52 | 753.79 ± 0.54
x1 = 0.1565 | 813.56 ± 0.45 | 804.91 ± 0.46 | 796 ± 0.47 | 786.79 ± 0.49 | 777.21 ± 0.5 | 767.2 ± 0.52
x1 = 0.2367 | 828.13 ± 0.43 | 819.4 ± 0.44 | 810.43 ± 0.45 | 801.18 ± 0.47 | 791.6 ± 0.48 | 781.64 ± 0.5
x1 = 0.3166 | 842.63 ± 0.4 | 833.83 ± 0.42 | 824.81 ± 0.43 | 815.54 ± 0.45 | 805.96 ± 0.46 | 796.02 ± 0.47
x1 = 0.4015 | 858.01 ± 0.38 | 849.14 ± 0.4 | 840.08 ± 0.41 | 830.78 ± 0.42 | 821.21 ± 0.44 | 811.31 ± 0.45
x1 = 0.4766 | 871.62 ± 0.36 | 862.69 ± 0.38 | 853.59 ± 0.39 | 844.26 ± 0.4 | 834.69 ± 0.42 | 824.82 ± 0.43
x1 = 0.5605 | 886.76 ± 0.34 | 877.79 ± 0.35 | 868.64 ± 0.37 | 859.3 ± 0.38 | 849.72 ± 0.39 | 839.87 ± 0.41
x1 = 0.6403 | 901.1 ± 0.32 | 892.08 ± 0.33 | 882.9 ± 0.35 | 873.54 ± 0.36 | 863.96 ± 0.37 | 854.14 ± 0.39
x1 = 0.7179 | 914.98 ± 0.3 | 905.92 ± 0.31 | 896.72 ± 0.33 | 887.34 ± 0.34 | 877.76 ± 0.35 | 867.96 ± 0.37
x1 = 0.7925 | 928.26 ± 0.28 | 919.16 ± 0.29 | 909.94 ± 0.31 | 900.55 ± 0.32 | 890.96 ± 0.33 | 881.18 ± 0.35
x1 = 0.8593 | 940.12 ± 0.26 | 931 ± 0.27 | 921.74 ± 0.29 | 912.34 ± 0.3 | 902.77 ± 0.32 | 892.99 ± 0.33
x1 = 0.9585 | 957.65 ± 0.24 | 948.49 ± 0.25 | 939.2 ± 0.26 | 929.78 ± 0.28 | 920.21 ± 0.29 | 910.45 ± 0.31

COCCO [2-methoxyethan-1-ol] + CC(O)CO
mass density [kg/m3], [2]
Details | 293.15 K | 303.15 K | 313.15 K | 323.15 K | 333.15 K | 343.15 K
x1 = 0.0745 | 1030.87 ± 0.23 | 1023.34 ± 0.22 | 1015.67 ± 0.21 | 1007.87 ± 0.2 | 999.89 ± 0.19 | 991.75 ± 0.2
x1 = 0.1669 | 1024.12 ± 0.22 | 1016.42 ± 0.21 | 1008.59 ± 0.2 | 1000.6 ± 0.19 | 992.48 ± 0.2 | 984.19 ± 0.21
x1 = 0.2365 | 1019.06 ± 0.21 | 1011.22 ± 0.2 | 1003.26 ± 0.19 | 995.17 ± 0.19 | 986.94 ± 0.2 | 978.54 ± 0.21
x1 = 0.3194 | 1013.05 ± 0.2 | 1005.07 ± 0.19 | 996.96 ± 0.19 | 988.73 ± 0.2 | 980.35 ± 0.21 | 971.81 ± 0.22
x1 = 0.3946 | 1007.6 ± 0.2 | 999.48 ± 0.19 | 991.25 ± 0.2 | 982.88 ± 0.21 | 974.38 ± 0.22 | 965.73 ± 0.23
x1 = 0.4791 | 1001.49 ± 0.19 | 993.22 ± 0.2 | 984.85 ± 0.2 | 976.34 ± 0.21 | 967.7 ± 0.23 | 958.9 ± 0.24
x1 = 0.5625 | 995.51 ± 0.19 | 987.1 ± 0.2 | 978.58 ± 0.21 | 969.93 ± 0.22 | 961.14 ± 0.23 | 952.2 ± 0.24
x1 = 0.6331 | 990.47 ± 0.2 | 981.94 ± 0.21 | 973.3 ± 0.22 | 964.53 ± 0.23 | 955.63 ± 0.24 | 946.55 ± 0.25
x1 = 0.7266 | 983.82 ± 0.21 | 975.12 ± 0.22 | 966.32 ± 0.23 | 957.38 ± 0.24 | 948.31 ± 0.25 | 939.08 ± 0.26
x1 = 0.8081 | 978.11 ± 0.21 | 969.27 ± 0.22 | 960.32 ± 0.23 | 951.24 ± 0.25 | 942.02 ± 0.26 | 932.64 ± 0.27
x1 = 0.8752 | 973.43 ± 0.22 | 964.47 ± 0.23 | 955.4 ± 0.24 | 946.21 ± 0.25 | 936.87 ± 0.27 | 927.36 ± 0.28
x1 = 0.9658 | 967.23 ± 0.23 | 958.12 ± 0.24 | 948.88 ± 0.25 | 939.52 ± 0.26 | 930.01 ± 0.28 | 920.33 ± 0.29

COCCO [2-methoxyethan-1-ol] + CCCO
mass density [kg/m3], [2]
Details | 293.15 K | 303.15 K | 313.15 K | 323.15 K | 333.15 K | 343.15 K
x1 = 0.0845 | 817.73 ± 0.42 | 809.55 ± 0.43 | 801.23 ± 0.44 | 792.73 ± 0.45 | 783.99 ± 0.47 | 774.97 ± 0.48
x1 = 0.1559 | 829.58 ± 0.4 | 821.29 ± 0.41 | 812.86 ± 0.42 | 804.25 ± 0.44 | 795.42 ± 0.45 | 786.31 ± 0.47
x1 = 0.2391 | 843.36 ± 0.38 | 834.94 ± 0.39 | 826.39 ± 0.41 | 817.66 ± 0.42 | 808.72 ± 0.43 | 799.51 ± 0.45
x1 = 0.3146 | 855.77 ± 0.36 | 847.26 ± 0.38 | 838.61 ± 0.39 | 829.78 ± 0.4 | 820.75 ± 0.42 | 811.47 ± 0.43
x1 = 0.4015 | 869.91 ± 0.34 | 861.29 ± 0.36 | 852.53 ± 0.37 | 843.61 ± 0.38 | 834.47 ± 0.4 | 825.11 ± 0.41
x1 = 0.479 | 882.45 ± 0.33 | 873.74 ± 0.34 | 864.89 ± 0.35 | 855.88 ± 0.37 | 846.68 ± 0.38 | 837.25 ± 0.4
x1 = 0.5597 | 895.42 ± 0.31 | 886.62 ± 0.32 | 877.69 ± 0.34 | 868.6 ± 0.4 | 859.32 ± 0.36 | 849.83 ± 0.38
x1 = 0.6365 | 907.69 ± 0.29 | 898.82 ± 0.31 | 889.81 ± 0.32 | 880.65 ± 0.33 | 871.31 ± 0.35 | 861.76 ± 0.36
x1 = 0.7183 | 920.73 ± 0.28 | 911.78 ± 0.29 | 902.7 ± 0.3 | 893.47 ± 0.32 | 884.08 ± 0.33 | 874.48 ± 0.35
x1 = 0.7939 | 932.73 ± 0.26 | 923.71 ± 0.28 | 914.56 ± 0.29 | 905.28 ± 0.3 | 895.83 ± 0.32 | 886.17 ± 0.33
x1 = 0.8775 | 945.88 ± 0.25 | 936.8 ± 0.26 | 927.59 ± 0.27 | 918.24 ± 0.29 | 908.74 ± 0.3 | 899.05 ± 0.32
x1 = 0.9553 | 957.99 ± 0.24 | 948.84 ± 0.25 | 939.57 ± 0.26 | 930.18 ± 0.27 | 920.63 ± 0.29 | 910.9 ± 0.3

CCCO [propan-1-ol]
[1]
Details | mass density [kg/m3]
293.15 K | 803.61 ± 0.23
303.15 K | 795.57 ± 0.23
313.15 K | 787.39 ± 0.24
323.15 K | 779.02 ± 0.24
333.15 K | 770.42 ± 0.25
343.15 K | 761.51 ± 0.25

CC(C)O [propan-2-ol]
[1]
Details | mass density [kg/m3]
293.15 K | 785.1 ± 0.49
303.15 K | 776.63 ± 0.5
313.15 K | 767.85 ± 0.52
323.15 K | 758.68 ± 0.53
333.15 K | 749.06 ± 0.54
343.15 K | 738.91 ± 0.56
